This note sets out measurements from US11672792B2, “Topical formulations comprising montelukast and combinations with mussel adhesive proteins” (ENLITISA (SHANGHAI) PHARMACEUTICAL CO., LTD, priority 2017, dated 2023).

Molecules are shown by their SMILES. Where two headings read alike, the source gives them in different places.

Series [1] deals with burn wounds. The experiment in a line: Burn Injury Model (Example 3). The format is in vivo, Sprague-Dawley rats. Particulars: per wound: dexamethasone 0.4 mg, MAP 0.25 mg, montelukast 0.25 mg, once daily topically. As to the method:
Healthy adult male Sprague-Dawley rats weighing between 200 and 300 g were supplied by Beijing Vital River Laboratory Animal Technology Co. Ltd, Beijing, China.
Prior to any experiments being conducted, rats were housed under standardized conditions (at a constant temperature or 22 t 2° C., with alternating 12 hour periods of light and darkness) and were fed on a standard rat diet with water.
Rats were anaesthetised with 3% chloral hydrate (Sinopharm Chemical Reagent Co., Ltd., Shanghai, China) (1 mL/100 g of body weight) administered by intraperitoneal injection. The dorsal trunk was of each rat was shaved with an electric razor and surgically prepared with 70% alcohol scrubs. A constant temperature and constant pressure scald instrument (YLS-5Q, Shandong Academy of Medical Sciences, China) was employed, as this allows for a precise measurement of pressure applied to the skin surface. Thermal injury was induced by heating a stylus (with a surface area of 4 cm^2) to 80° C. and applying the stylus to the surface of the skin for a contact time of 18 seconds. 500 grams of pressure was applied during the operation. In this way, four two-degree shallow to deep burn wounds were created on each rat. Test compounds or vehicle were applied to the surface of the wound.
Rats were kept in separate cages but were allowed to move freely throughout the test period. In the first treatment, 500 μL of the relevant solutions was applied about 3 to 4 hours after the surgery (Day 0) and then once daily for the next 7 days. Gross appearances of the scald wounds were observed every day. Photographs were taken at 48 hours (Day 2), and on the 4th (Day 4) and 7th (Day 7) days with a digital camera to compare wound healing. The skin lesions were evaluated for the following criteria: blistering, swelling, redness, crust, bleeding, secretion, granulation tissue and scar tissue. The degree of healing was expressed as the wound contraction ratio (WCR): WCR=(A0−At)/A0×100% in which A0 and At refer to the initial area and the wound area at time t, respectively.
On Days 2, 4 and 7 after application of the burn, two rats were sacrificed and the burned skins excised. The freshly isolated skin was fixed in 10% neutral buffered formalin (which contained 4% of formaldehyde). This was used for histological embedding, staining and immunohistochemical studies.
Administered solutions were made up substantially as described in Example 1 above.
Burn scores are shown in Table 12 below and are illustrated in FIG. 3. Skin samples were sent to the Department of Pathology of Nanjing Hospital of Chinese Medicine, China. Samples were fixed and embedded, and histological sections were cut and stained. The stained sections were examined under a light microscope and pictures were taken. All pictures were interpreted and scored according to the following criteria: first degree—the epidermis was damaged and the substrate remains intact (score 1 point); superficial second degree—the epidermis was completely damaged and the papillary layer was damaged (1.5 points): deep second degree—the dermis was injured into the reticular layer and retain some dermis (2.5 points); and third degree—the dermis was completely damaged and the muscles and/or bones affected (3 points).

The subject of series [2] is full thickness skin wounds in diabetic mice. As to the kind of experiment: Diabetic Wound Model (Example 7). The format is in vivo, db/db mice (C57BL/KsJ-db/db). Particulars: Day 6, Mon 100 μg/each. As to the method: A similar experiment with essentially the same protocol to that described in Example 6 above was carried out on 8 to 12 week-old male db/db mice (C57BL/KsJ-db/db, with a body weight of 35-45 g/mouse; supplied by Changzhou Cvens Experimental Animal Co. Ltd.).
An EMS skin biopsy punch with a […] diameter was used to make wounds.
Different drugs were administrated topically at 20 μL/wound, once daily from Day 0 to Day 18. The model group was given same amount of normal saline.
Samples were taken on Day 6, Day 12 and Day 18 post-wound inflictions.
Histological specimens were analyzed and skin regeneration, fibroblast proliferation, collagen regeneration scores (Masson score) and inflammation scores were estimated as follows.
The HE and Masson stained slices were observed under an optical microscope and were scored (1, 2 or 3 points) according to the following criteria. […]
Fibroblast proliferation was scored as the following criteria:
Inflammation was scored as the following criteria:
Collagen deposition score criterion for the Masson stained sample were as follows. […] No clear blue staining was given 0 points; blue fiber appearing in a scattered pattern was scored as 1 points; if more blue fiber appeared, this was scored as 2 points, and a diffuse blue colour was given 3 points.

For series [3] the following is noted: for Montelukast amount in skin sample: unscalded intact skin.
The nature of series [4]: in vivo. Particulars: Sprague Dawley, rat, skin (unscalded intact, full thickness), topical, 1 g montelukast cream.
A short description of series [5]: pH and stability of montelukast formulations. Particulars: PEG-based creams or ointments; not prone to oxidation.

As for `C[C@@H]1C[C@H]2[C@@H]3CCC4=CC(=O)C=C[C@]4(C)[C@@]3(F)[C@@H](O)C[C@]2(C)[C@@]1(O)C(=O)CO` [Dexamethasone, dexamethasone], the Burn score in series [1] (Day 2) amounted to 2.25; in series [1] (Day 4), 2.64; in series [1] (Day 7), 2.50.
Regarding `CC(C)(O)c1ccccc1CC[C@@H](SCC1(CC(=O)O)CC1)c1cccc(/C=C/c2ccc3ccc(Cl)cc3n2)c1` [Mon, Montelukast sodium], the Burn score amounted to 1.50 in series [1] (Day 2), 2.38 in series [1] (Day 4) and 2.00 in series [1] (Day 7). Besides, in series [2], the “increase of VEGF production in the wounded tissue in comparison with model group” value is given as “about 74%”. Moreover, the “VEGF content, Mean” value in series [2] (wound tissue, rhEGF 100 IU/each, once daily topically) came out at 5.47 pg/g. For the same compound, the “Montelukast amount in skin sample” value in series [3] (0 h, 1 g montelukast cream topically) was 0 g; in series [3] (1 h), 2.53 g; in series [3] (2 h), 5.44 g; in series [3] (3 h), 0.89 g; in series [3] (6 h), 0.90 g; in series [3] (8 h), 3.54 g. Besides, in series [3] (scalded skin), the “time of montelukast peak in skin” value was 2 h. Further, the concentration at 0 h in series [4] turned out to be 0 ng/g. Further, the concentration at 1 h in series [4] came out at 36700 ng/g. The same compound came in with a concentration at 2 h in series [4] of 68000 ng/g. The compound further gave a concentration at 3 h in series [4] of 13400 ng/g. Also, the concentration at 6 h in series [4] came to 15600 ng/g. This compound came in with a concentration at 8 h in series [4] of 55300 ng/g. For the same compound, the “stability of formulation (in words)” value in series [5] was “surprisingly stable”.
